Earlier results as cited in US11051972B1 (priority 2020, dated 2021).
Read-outs that look alike come from different tables or passages of the source.

Experiments:
[1] = system: novel coronavirus (COVID-19); details: multi-center study in China, journal article [14, 20]

What does the source list for CCN(CC)CCCC(C)Nc1ccnc2cc(Cl)ccc12 (stereo not shown) [Chloroquine]?
effectiveness against the novel coronavirus (COVID-19) [1]: effective; % Excreted Unchanged or Active Metabolite in Urine (in vivo): 70%

Which “% Excreted Unchanged or Active Metabolite in Urine” value (in vivo) does the source give for C[C@H]1COc2c(N3CCN(C)CC3)c(F)cc3c(=O)c(C(=O)O)cn1c23 [Levaquin] here?
The value was 85%.

For CCC(CC)[C@H](NC(C)=O)[C@@H]1[C@H](O)[C@@H](C(=O)O)C[C@H]1N=C(N)N [Rapivab], which “% Excreted Unchanged or Active Metabolite in Urine” value (urine) is on record?
Its value is 90%.

Which “% Excreted Unchanged or Active Metabolite in Urine” value (urine) does the source give for CC(=O)N[C@H]1[C@H]([C@H](O)[C@H](O)CO)OC(C(=O)O)=C[C@@H]1N=C(N)N [Relenza] here?
Its value is 90%.

Which “% Excreted Unchanged or Active Metabolite in Urine” value (urine) does the source give for CCC(CC)COC(=O)[C@H](C)N[P@](=O)(OC[C@H]1O[C@@](C#N)(c2ccc3c(N)ncnn23)[C@H](O)[C@@H]1O)Oc1ccccc1 [Remdesevir] here?
The value was 60%.

With CCOC(=O)C1=C[C@@H](OC(CC)CC)[C@H](NC(C)=O)[C@@H](N)C1 [Tamiflu] as the compound, how does the “% Excreted Unchanged or Active Metabolite in Urine” value (urine) read?
Its value is 90%.
